{
  "source": "patent US20260262643A1",
  "about": "“HERBICIDAL BENZOXAZINES” (FMC CORPORATION, priority 2022, published 2026)",
  "key": {"ragweed [1]": {"tested_on": "ragweed", "assay": "Test C preemergence", "assay_type": "in vivo, Ambrosia artemisiifolia", "conditions": "Preemergence, 1000 g ai/ha; visual rating after 10 days, 0 to 100 scale (0 no effect, 100 complete control)", "procedure,_shortened": "(§1)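 Seeds sown in loam soil–sand blend received a directed preemergence soil spray of test chemical in non-phytotoxic solvent with surfactant; postemergence plants (2–10 cm, one- to two-leaf stage) were sprayed with the same formulation. Greenhouse-held 10 days, then visually rated for injury versus untreated controls, 0 (no effect) to 100 (complete control).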"}, "ryegrass, Italian [2]": {"tested_on": "ryegrass, Italian", "assay": "Test C postemergence", "assay_type": "in vivo, Lolium multiflorum", "conditions": "Postemergence, 1000 g ai/ha", "procedure,_shortened": "as §1"}, "barnyardgrass [3]": {"tested_on": "barnyardgrass", "assay": "Test C preemergence", "assay_type": "in vivo, Echinochloa crusgalli", "conditions": "Preemergence, 1000 g ai/ha; visual rating after 10 days, 0 to 100 scale (0 no effect, 100 complete control)", "procedure,_shortened": "as §1"}, "kochia [4]": {"tested_on": "kochia", "assay": "Test C preemergence", "assay_type": "in vivo, Bassia scoparia", "conditions": "Preemergence, 1000 g ai/ha; visual rating after 10 days, 0 to 100 scale (0 no effect, 100 complete control)", "procedure,_shortened": "as §1"}, "corn": {"tested_on": "corn", "assay": "Test C postemergence", "assay_type": "in vivo, Zea mays", "conditions": "Postemergence, 1000 g ai/ha", "procedure,_shortened": "as §1"}, "blackgrass": {"tested_on": "blackgrass", "assay": "Test C postemergence", "assay_type": "in vivo, Alopecurus myosuroides", "conditions": "Postemergence, 1000 g ai/ha", "procedure,_shortened": "as §1"}, "foxtail, giant [5]": {"tested_on": "foxtail, giant", "assay": "Test C postemergence", "assay_type": "in vivo, Setaria faberi", "conditions": "Postemergence, 1000 g ai/ha", "procedure,_shortened": "as §1"}, "wheat": {"tested_on": "wheat", "assay": "Test C postemergence", "assay_type": "in vivo, Triticum aestivum", "conditions": "Postemergence, 1000 g ai/ha", "procedure,_shortened": "as §1"}, "foxtail, giant [6]": {"tested_on": "foxtail, giant", "assay": "Test C preemergence", "assay_type": "in vivo, Setaria faberi", "conditions": "Preemergence, 1000 g ai/ha; visual rating after 10 days, 0 to 100 scale (0 no effect, 100 complete control)", "procedure,_shortened": "as §1"}, "ryegrass, Italian [7]": {"tested_on": "ryegrass, Italian", "assay": "Test C preemergence", "assay_type": "in vivo, Lolium multiflorum", "conditions": "Preemergence, 1000 g ai/ha; visual rating after 10 days, 0 to 100 scale (0 no effect, 100 complete control)", "procedure,_shortened": "as §1"}, "kochia [8]": {"tested_on": "kochia", "assay": "Test C postemergence", "assay_type": "in vivo, Bassia scoparia", "conditions": "Postemergence, 1000 g ai/ha", "procedure,_shortened": "as §1"}, "galium": {"tested_on": "galium", "assay": "Test C postemergence", "assay_type": "in vivo, Galium aparine", "conditions": "Postemergence, 1000 g ai/ha", "procedure,_shortened": "as §1"}, "barnyardgrass [9]": {"tested_on": "barnyardgrass", "assay": "Test C postemergence", "assay_type": "in vivo, Echinochloa crusgalli", "conditions": "Postemergence, 1000 g ai/ha", "procedure,_shortened": "as §1"}, "Pigweed, Redroot [10]": {"tested_on": "Pigweed, Redroot", "assay": "Test C postemergence", "assay_type": "in vivo, Amaranthus retroflexus", "conditions": "1000 g ai/ha", "source_text": "(§2) Seeds of plant species selected from barnyardgrass (Echinochloa crusgalli), blackgrass (Alopecurus myosuroides), corn (Zea mays), foxtail, giant (giant foxtail, Setaria faberi), green foxtail (Setaria viridis), goosegrass (Eleusine indica), kochia (Bassia scoparia), oat, wild (wild oat, Avena fatua), pigweed, palmer (palmer amaranth, palmer pigweed, Amaranthus palmeri), Pigweed, Redroot (redroot pigweed, Amaranthus retroflexus), ragweed (common ragweed, Ambrosia artemisiifolia), ryegrass, Italian ([…] ryegrass, Lolium multiflorum), soybean (Glycine max), and wheat (Triticum aestivum) were planted into a blend of loam soil and sand and treated preemergence with a directed soil spray using test chemicals formulated in a non-phytotoxic solvent mixture which included a surfactant. At the same time, plants selected from these crops and weed species and also galium (catchweed bedstraw, Galium aparine) and horseweed (Erigeron canadensis) were planted in pots containing the same blend of loam soil and sand and treated with postemergence applications of test chemicals formulated in the same manner. Plants ranged in height from 2 to 10 cm and were in the one- to two-leaf stage for the postemergence treatment. Treated plants and untreated controls were maintained in a greenhouse for 10 days, after which time all treated plants were compared to untreated controls and visually evaluated for injury. Plant response ratings, summarized in Table C, are based on a 0 to 100 scale where 0 is no effect and 100 is complete control. A dash (-) response means no test result."}, "ragweed [11]": {"tested_on": "ragweed", "assay": "Test C postemergence", "assay_type": "in vivo, Ambrosia artemisiifolia", "conditions": "Postemergence, 1000 g ai/ha", "procedure,_shortened": "as §1"}, "Pigweed, Redroot [12]": {"tested_on": "Pigweed, Redroot", "assay": "Test C preemergence", "assay_type": "in vivo, Amaranthus retroflexus", "conditions": "1000 g ai/ha, visual rating after 10 days, 0 to 100 scale (0 no effect, 100 complete control)", "source_text": "as §2"}, "[13]": {"conditions": "0 to 100 scale, 0 no effect, 100 complete control"}, "[14]": {"conditions": "10 days, visual 0 to 100 scale (0 no effect, 100 complete control)"}},
  "data": [
    {"compound": "O=C(c1cccc(-n2cncn2)c1)N1CC2(CC2)Oc2ccccc21", "note": "[Compound 201]", "values": [
      {"measurement": "Plant response rating, Ragweed", "setting": "ragweed [1]", "result": 0},
      {"measurement": "Plant response rating, Ryegrass, Italian", "setting": "ryegrass, Italian [2]; [13]", "result": 0},
      {"measurement": "Plant response rating, Barnyardgrass", "setting": "barnyardgrass [3]", "result": 0},
      {"measurement": "Plant response rating, Kochia", "setting": "kochia [4]", "result": 0},
      {"measurement": "Corn plant response rating (crop injury, 0 = no effect, 100 = complete kill) at 1000 g/ha", "setting": "corn; Zea mays, post-emergence, 240 h, 0 to 100 scale, 0 no effect, 100 complete control", "result": 0, "unit": "%"},
      {"measurement": "pest or weed control at 1000 g/ha", "setting": "blackgrass; Alopecurus myosuroides, post-emergence, 240 h, 0 to 100 scale, 0 no effect, 100 complete control, read-out: Plant response rating, Blackgrass", "result": 0, "unit": "%"},
      {"measurement": "Plant response rating, Foxtail, Giant", "setting": "foxtail, giant [5]; [13]", "result": 10},
      {"measurement": "Plant response rating, Wheat", "setting": "wheat; [13]", "result": 0},
      {"measurement": "Plant response rating, Foxtail, Giant", "setting": "foxtail, giant [6]", "result": 10},
      {"measurement": "Plant response rating, Ryegrass, Italian", "setting": "ryegrass, Italian [7]", "result": 0},
      {"measurement": "Plant response rating, Kochia", "setting": "kochia [8]; [13]", "result": 10},
      {"measurement": "Plant response rating, Galium", "setting": "galium; [13]", "result": 40},
      {"measurement": "Plant response rating, Barnyardgrass", "setting": "barnyardgrass [9]; [13]", "result": 10},
      {"measurement": "Plant response rating, Pigweed, Redroot", "setting": "Pigweed, Redroot [10]; [13]", "result": 0},
      {"measurement": "Plant response rating, Ragweed", "setting": "ragweed [11]; [13]", "result": 0}
    ]},
    {"compound": "CCC1CN(C(=O)c2ccnc(-c3cccnc3)c2)c2cccc(Cl)c2O1", "note": "(racemic) [Compound 286]", "values": [
      {"measurement": "Plant response rating, Ragweed", "setting": "ragweed [1]", "result": 0},
      {"measurement": "Plant response rating, Ryegrass, Italian", "setting": "ryegrass, Italian [2]; [14]", "result": 0},
      {"measurement": "Plant response rating, Barnyardgrass", "setting": "barnyardgrass [3]", "result": 0},
      {"measurement": "Plant response rating, Kochia", "setting": "kochia [4]", "result": 0},
      {"measurement": "Plant response rating, Corn", "setting": "corn; [14]", "result": 0},
      {"measurement": "Plant response rating, Blackgrass", "setting": "blackgrass; [14]", "result": 0},
      {"measurement": "Plant response rating, Foxtail, Giant", "setting": "foxtail, giant [5]; [14]", "result": 0},
      {"measurement": "Plant response rating, Wheat", "setting": "wheat; [14]", "result": 0},
      {"measurement": "Plant response rating, Pigweed, Redroot", "setting": "Pigweed, Redroot [12]", "result": 0},
      {"measurement": "Plant response rating, Foxtail, Giant", "setting": "foxtail, giant [6]", "result": 0},
      {"measurement": "Plant response rating, Ryegrass, Italian", "setting": "ryegrass, Italian [7]", "result": 0},
      {"measurement": "Plant response rating, Kochia", "setting": "kochia [8]; [14]", "result": 0},
      {"measurement": "Plant response rating, Galium", "setting": "galium; [14]", "result": 0},
      {"measurement": "Plant response rating, Barnyardgrass", "setting": "barnyardgrass [9]; [14]", "result": 0},
      {"measurement": "Plant response rating, Pigweed, Redroot", "setting": "Pigweed, Redroot [10]; [14]", "result": 0},
      {"measurement": "Plant response rating, Ragweed", "setting": "ragweed [11]; [14]", "result": 0}
    ]}
  ]
}
